{
  "source": "paper PMC11141866",
  "about": "“Pyrimidine depletion enhances targeted and immune therapy combinations in acute myeloid leukemia” (JCI Insight, 2024)",
  "key": {"[1]": {"tested_on": "HL-60 disseminated CDX model", "assay": "HL-60 CDX synergy with decitabine", "assay_type": "in vivo, NCG mice", "conditions": "Decitabine 0.4 mpk IP (4on/10off), HOSU53 10 mpk p.o. qd, or both; flag 0 = censored at day 82", "protocol": "Female 8- to 12-week-old female NCG mice were engrafted with 1 × 10^7 cells via tail vein i.v. injection. At 14 days after engraftment (day 1 of treatment), mice (n = 10/arm) were randomized to receive p.o. qd and i.p. vehicle (p.o. qd 40% HPβCD and 4 on/10 off i.p. PBS), 10 mg/kg HOSU-53, i.p. 0.4 mg/kg decitabine on a 4-day on/10-day off cycle, or their combination till moribundity or end of study day 82."}, "MOLM-13": {"tested_on": "MOLM-13", "assay": "MTS proliferation assay, MOLM-13", "assay_type": "cell-based", "conditions": "Homo sapiens, MOLM-13, 96 h, read-out: IC50 (MTS proliferation)", "protocol": "(§1) A total of 10,000–20,000 cells from different AML lines or 50,000–75,000 cells of primary AML blasts were treated in a 96-well plate for 72 hours or 96 hours at 37°C, 5% CO2. CellTiter 96 Aqueous MTS reagent (Promega) was added to cells followed by a 3-hour incubation at 37°C, 5% CO2. The absorbance was measured at 490 nm using DTX 880 plate reader, and the IC50 was calculated using GraphPad Prism."}, "OCI-AML3": {"tested_on": "OCI-AML3", "assay": "MTS proliferation assay, OCI-AML3", "assay_type": "cell-based", "conditions": "Homo sapiens, OCI-AML-3, 96 h, read-out: IC50 (MTS proliferation)", "protocol": "as §1"}, "Kasumi": {"tested_on": "Kasumi", "assay": "MTS proliferation assay, Kasumi", "assay_type": "cell-based", "conditions": "Homo sapiens, 96 h, read-out: IC50 (MTS proliferation)", "protocol": "as §1"}, "U937": {"tested_on": "U937", "assay": "MTS proliferation assay, U937", "assay_type": "cell-based", "conditions": "Homo sapiens, U-937, 96 h, read-out: IC50 (MTS proliferation)", "protocol": "as §1"}, "[2]": {"tested_on": "primary AML patient samples", "assay": "Flow cytometry viability, primary AML long-term culture", "assay_type": "cell-based, human", "conditions": "500nM", "protocol": "(§2) Cells were thawed in 50% FBS RPMI and then cultured in StemSpan (StemCell Technologies) media supplemented with human FLT3L, SCF, GM-CSF, G-CSF, IL-3, IL-6, TPO, and EPO cytokines for 7 days (LTC).\n(§3) After 72 hours or 7 days of treatment of DHODHi, cells were collected and washed with PBS, blocked with human Fc block (BioLegend), and stained with antibodies for 30 minutes on ice. Antibodies were washed off and cells resuspended in FACS buffer (2% FBS, 2 mM NaN3, Dulbecco’s PBS) for analysis using BD LSRFortessa or Cytek Aurora spectral flow cytometer. Live/dead exclusion was done using LIVE/DEAD Fixable Near-IR (Invitrogen). All antibodies were purchased from BioLegend except CD47, which was purchased from BD Biosciences: CD11b clone M1/70, CD38 clone HIT2, CD14 clone M5E2, CD47 clone B6H12, CD33 clone WM53, CD3 clone UCHT1, CD19 clone HIB19, and CD45 clone HI30.\nSupplemental Figure S.2. […] A).\nFlow cytometry analysis of viable primary AML patient samples (n=10) treated in vitro for seven days\n(long term culture, LTC). […]"}, "[3]": {"tested_on": "primary AML patient samples", "assay": "Flow cytometry CD47 surface expression, primary AML samples", "assay_type": "cell-based, human", "conditions": "500nM", "protocol": "as §2, §3\nSupplemental Figure S.8. DHODHi modulates CD47 surface antigen expression. A) Representative flow cytometry overlay histogram plot for CD47 surface expression in MV4-11 cell line following a 72- […]\nsupplementation (experiment was done five independent times). B) Flow cytometry analysis of CD47 surface expression in primary AML patient samples (n=8-10) treated in vitro for seven days (long term culture, LTC). Data is shown as mean florescent intensity (MFI) of CD47 gated on live CD45+CD3-CD19- cells, error bars indicate mean with 95% confidence interval. C) Representative flow cytometry […]\nmodulation of CD47 post DHODHi treatment.\n(1 picture or pasted object on this page, not shown here)"}, "primary AML samples": {"tested_on": "primary AML samples", "assay": "Flow cytometry CD38 surface expression, primary AML samples", "assay_type": "cell-based, human", "conditions": "500nM", "protocol": "as §2, §3"}, "THP1": {"tested_on": "THP1", "assay": "MTS proliferation assay, THP1", "assay_type": "cell-based", "conditions": "Homo sapiens, THP-1, 96 h, read-out: IC50 (MTS proliferation)", "protocol": "as §1"}},
  "note": "Where “and” joins values, the source holds several entries; their conditions need not be identical. Equal values may be shown once.",
  "data": [
    {"smiles": "Nc1ncn([C@H]2C[C@H](O)[C@@H](CO)O2)c(=O)n1", "note": "[Decitabine, decitabine, reference compound]", "values": [
      {"measurement": "Survival, day of study at event (per animal)", "setting": "[1]", "value": "40 days and 41 days and 43 days and 45 days and 47 days"}
    ]},
    {"smiles": "Cc1c(-c2ccc(-c3ccccc3F)cc2)nc2ccc(F)cc2c1C(=O)O", "note": "[BRQ, brequinar]", "values": [
      {"measurement": "IC50", "setting": "MOLM-13", "value": 0.378, "unit": "µM"},
      {"measurement": "IC50", "setting": "OCI-AML3", "value": 0.483, "unit": "µM"},
      {"measurement": "IC50", "setting": "Kasumi", "value": 1.18, "unit": "µM"},
      {"measurement": "IC50", "setting": "U937", "value": 2, "unit": "µM"},
      {"measurement": "% Live (Near-IR negative)", "setting": "[2]; Pt.13, DMSO 72.92", "value": 74.35, "unit": "%"},
      {"measurement": "% Live (Near-IR negative)", "setting": "[2]; Pt.14, DMSO 68.39", "value": 69.22, "unit": "%"},
      {"measurement": "% Live (Near-IR negative)", "setting": "[2]; Pt.15, DMSO 61.7", "value": 34.7, "unit": "%"},
      {"measurement": "% Live (Near-IR negative)", "setting": "[2]; Pt.16, DMSO 45.99", "value": 44.41, "unit": "%"},
      {"measurement": "% Live (Near-IR negative)", "setting": "[2]; Pt.17, DMSO 29.84", "value": 27.99, "unit": "%"},
      {"measurement": "% Live (Near-IR negative)", "setting": "[2]; Pt.18, DMSO 29.72", "value": 24.94, "unit": "%"},
      {"measurement": "% Live (Near-IR negative)", "setting": "[2]; Pt.19, DMSO 75.66", "value": 72.29, "unit": "%"},
      {"measurement": "% Live (Near-IR negative)", "setting": "[2]; Pt.20, DMSO 67.67", "value": 44.18, "unit": "%"},
      {"measurement": "CD47 MFI", "setting": "[3]; Pt.13, DMSO 1665.27", "value": 1311.31},
      {"measurement": "CD47 MFI", "setting": "[3]; Pt.14, DMSO 585.79", "value": 845.1},
      {"measurement": "CD47 MFI", "setting": "[3]; Pt.15, DMSO 1002.16", "value": 847.29},
      {"measurement": "CD47 MFI", "setting": "[3]; Pt.16, DMSO 1349.33", "value": 1999.15},
      {"measurement": "CD47 MFI", "setting": "[3]; Pt.17, DMSO 334.61", "value": 370.44},
      {"measurement": "CD47 MFI", "setting": "[3]; Pt.18, DMSO 869.17", "value": 1024.38},
      {"measurement": "CD47 MFI", "setting": "[3]; Pt.19, DMSO 364.4", "value": 470.75},
      {"measurement": "CD47 MFI", "setting": "[3]; Pt.20, DMSO 398.54", "value": 499.32},
      {"measurement": "CD38 MFI", "setting": "primary AML samples; Pt.13, DMSO 803.93", "value": 685.5},
      {"measurement": "CD38 MFI", "setting": "primary AML samples; Pt.14, DMSO 15.61", "value": 20.07},
      {"measurement": "CD38 MFI", "setting": "primary AML samples; Pt.15, DMSO 168", "value": 776.17},
      {"measurement": "CD38 MFI", "setting": "primary AML samples; Pt.16, DMSO 274.9", "value": 196.87},
      {"measurement": "CD38 MFI", "setting": "primary AML samples; Pt.17, DMSO 1637.55", "value": 2098.18},
      {"measurement": "CD38 MFI", "setting": "primary AML samples; Pt.18, DMSO 74.26", "value": 85.41},
      {"measurement": "CD38 MFI", "setting": "primary AML samples; Pt.19, DMSO 997.1", "value": 1760},
      {"measurement": "CD38 MFI", "setting": "primary AML samples; Pt.20, DMSO 193.57", "value": 223.42},
      {"measurement": "IC50", "setting": "THP1", "value": 0.899, "unit": "µM"}
    ]}
  ]
}
